Test results reported in ChEMBL document CHEMBL3991601, “The target landscape of clinical kinase drugs” (Science, 2017).
Activity calls are given as the source filed them. Cut-off read from the data, not from the text of the source, for most assays here: actives have a measured Kd and inactives only a lower limit.

Assays:
[1] = target: Mitogen-activated protein kinase 14 (Homo sapiens, UniProt Q16539)
[2] = target: Serine/threonine-protein kinase B-raf (Homo sapiens, UniProt P15056)
[3] = target: Macrophage-stimulating protein receptor (Homo sapiens, UniProt Q04912)
[4] = target: T1, Breakpoint cluster region protein (Homo sapiens, UniProt P11274)
T1 sequence (P11274 whole entry): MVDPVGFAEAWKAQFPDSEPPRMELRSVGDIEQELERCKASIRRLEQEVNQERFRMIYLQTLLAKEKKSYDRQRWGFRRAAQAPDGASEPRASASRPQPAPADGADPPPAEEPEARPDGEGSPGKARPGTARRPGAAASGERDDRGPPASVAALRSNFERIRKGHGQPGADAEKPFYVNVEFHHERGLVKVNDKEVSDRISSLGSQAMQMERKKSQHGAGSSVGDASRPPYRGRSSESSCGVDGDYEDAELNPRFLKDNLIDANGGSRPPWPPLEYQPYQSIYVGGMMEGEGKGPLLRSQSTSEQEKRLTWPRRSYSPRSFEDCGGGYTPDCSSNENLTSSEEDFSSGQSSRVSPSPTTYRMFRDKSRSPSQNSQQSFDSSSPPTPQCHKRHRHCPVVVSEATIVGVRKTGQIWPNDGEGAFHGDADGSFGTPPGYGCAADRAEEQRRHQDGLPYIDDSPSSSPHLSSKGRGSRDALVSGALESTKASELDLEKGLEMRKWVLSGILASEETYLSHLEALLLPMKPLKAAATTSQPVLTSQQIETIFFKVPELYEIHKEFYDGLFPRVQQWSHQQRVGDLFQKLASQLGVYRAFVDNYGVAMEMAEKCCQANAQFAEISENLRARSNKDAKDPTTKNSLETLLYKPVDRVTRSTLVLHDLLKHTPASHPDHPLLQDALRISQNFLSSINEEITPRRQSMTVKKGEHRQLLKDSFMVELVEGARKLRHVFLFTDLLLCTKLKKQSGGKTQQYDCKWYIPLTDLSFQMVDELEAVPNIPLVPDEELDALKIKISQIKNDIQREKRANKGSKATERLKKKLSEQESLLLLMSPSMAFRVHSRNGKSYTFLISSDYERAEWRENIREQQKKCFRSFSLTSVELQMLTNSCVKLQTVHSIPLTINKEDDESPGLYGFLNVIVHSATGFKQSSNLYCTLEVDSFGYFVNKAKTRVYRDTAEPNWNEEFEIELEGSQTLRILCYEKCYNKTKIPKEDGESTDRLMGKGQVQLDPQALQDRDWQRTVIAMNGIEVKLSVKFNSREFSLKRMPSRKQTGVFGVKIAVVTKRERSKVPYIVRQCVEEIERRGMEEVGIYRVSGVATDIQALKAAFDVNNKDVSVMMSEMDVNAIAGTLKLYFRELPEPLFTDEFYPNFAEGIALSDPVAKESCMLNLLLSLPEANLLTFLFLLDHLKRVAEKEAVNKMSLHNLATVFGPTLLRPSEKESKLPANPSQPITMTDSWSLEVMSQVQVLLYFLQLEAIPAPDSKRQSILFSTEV

[5] = target: High affinity nerve growth factor receptor (Homo sapiens, UniProt P04629)
[6] = target: Citron Rho-interacting kinase (Homo sapiens, UniProt O14578)
[7] = target: T2, Dual specificity mitogen-activated protein kinase kinase 6 (Homo sapiens, UniProt P52564)
T2 sequence (P52564 whole entry): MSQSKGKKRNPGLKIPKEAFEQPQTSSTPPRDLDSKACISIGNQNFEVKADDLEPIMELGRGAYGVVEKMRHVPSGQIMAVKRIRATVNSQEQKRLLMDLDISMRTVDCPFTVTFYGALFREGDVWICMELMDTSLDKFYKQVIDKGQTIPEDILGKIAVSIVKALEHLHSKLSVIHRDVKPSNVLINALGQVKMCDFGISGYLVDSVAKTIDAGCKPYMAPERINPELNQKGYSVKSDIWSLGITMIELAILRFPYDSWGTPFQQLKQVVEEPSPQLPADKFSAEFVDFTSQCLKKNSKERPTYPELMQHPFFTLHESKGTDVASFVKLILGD

[8] = target: Mitogen-activated protein kinase kinase kinase kinase 4 (Homo sapiens, UniProt O95819)
[9] = target: DnaJ homolog subfamily A member 1 (Homo sapiens, UniProt P31689)
[10] = target: T3, Succinate--CoA ligase [ADP-forming] subunit beta, mitochondrial (Homo sapiens, UniProt Q9P2R7)
T3 sequence (Q9P2R7 whole entry): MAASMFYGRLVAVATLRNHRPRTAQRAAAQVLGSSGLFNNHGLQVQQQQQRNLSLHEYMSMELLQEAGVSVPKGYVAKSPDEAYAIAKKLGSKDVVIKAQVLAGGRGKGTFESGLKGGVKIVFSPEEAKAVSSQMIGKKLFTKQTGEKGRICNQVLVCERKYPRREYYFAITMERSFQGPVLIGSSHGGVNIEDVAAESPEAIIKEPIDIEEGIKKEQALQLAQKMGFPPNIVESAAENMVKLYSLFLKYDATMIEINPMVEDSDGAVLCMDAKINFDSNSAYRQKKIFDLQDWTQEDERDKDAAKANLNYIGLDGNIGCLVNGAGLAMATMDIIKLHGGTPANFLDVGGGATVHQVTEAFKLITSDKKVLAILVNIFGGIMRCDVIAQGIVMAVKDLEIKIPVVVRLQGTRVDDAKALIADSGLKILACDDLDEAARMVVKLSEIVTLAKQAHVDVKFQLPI

[11] = target: Glycogen synthase kinase-3 alpha (Homo sapiens, UniProt P49840)
[12] = target: T4, Serine/threonine-protein kinase Nek2 (Homo sapiens, UniProt P51955)
T4 sequence (P51955 whole entry): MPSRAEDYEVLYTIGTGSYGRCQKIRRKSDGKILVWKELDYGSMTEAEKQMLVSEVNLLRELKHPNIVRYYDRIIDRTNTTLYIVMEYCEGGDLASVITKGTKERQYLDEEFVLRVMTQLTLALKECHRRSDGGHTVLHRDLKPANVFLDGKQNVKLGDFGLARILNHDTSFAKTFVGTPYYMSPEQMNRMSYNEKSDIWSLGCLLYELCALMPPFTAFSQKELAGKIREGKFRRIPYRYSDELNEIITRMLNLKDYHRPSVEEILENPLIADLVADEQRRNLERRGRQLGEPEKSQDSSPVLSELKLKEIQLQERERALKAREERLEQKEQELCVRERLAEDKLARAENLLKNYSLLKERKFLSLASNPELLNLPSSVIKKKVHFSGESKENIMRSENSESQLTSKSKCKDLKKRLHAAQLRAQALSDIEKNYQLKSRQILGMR
Note: in the data inactive means no Kd found up to 30 µM.

Sequence of High affinity nerve growth factor receptor (P04629 whole entry): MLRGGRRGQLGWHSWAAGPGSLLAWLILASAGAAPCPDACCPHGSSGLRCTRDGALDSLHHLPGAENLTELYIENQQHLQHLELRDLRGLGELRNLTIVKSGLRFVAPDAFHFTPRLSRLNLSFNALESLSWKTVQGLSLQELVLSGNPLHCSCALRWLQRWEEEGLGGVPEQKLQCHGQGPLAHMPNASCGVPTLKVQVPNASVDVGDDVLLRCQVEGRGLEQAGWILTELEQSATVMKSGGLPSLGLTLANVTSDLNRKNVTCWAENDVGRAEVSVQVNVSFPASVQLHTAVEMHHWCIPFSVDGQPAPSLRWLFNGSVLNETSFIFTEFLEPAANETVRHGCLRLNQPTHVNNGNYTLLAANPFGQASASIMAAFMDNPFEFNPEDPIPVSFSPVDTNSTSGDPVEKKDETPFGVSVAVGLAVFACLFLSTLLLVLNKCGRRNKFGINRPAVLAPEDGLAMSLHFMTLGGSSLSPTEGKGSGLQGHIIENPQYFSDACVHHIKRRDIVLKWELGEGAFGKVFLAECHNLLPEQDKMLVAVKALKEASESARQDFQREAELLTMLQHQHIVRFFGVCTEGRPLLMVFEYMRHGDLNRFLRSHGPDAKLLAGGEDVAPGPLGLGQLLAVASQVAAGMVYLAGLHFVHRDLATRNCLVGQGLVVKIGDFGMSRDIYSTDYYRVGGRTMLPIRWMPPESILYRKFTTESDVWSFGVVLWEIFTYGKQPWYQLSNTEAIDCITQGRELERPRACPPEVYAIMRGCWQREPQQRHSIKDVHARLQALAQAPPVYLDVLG
Sequence of DnaJ homolog subfamily A member 1 (P31689 whole entry): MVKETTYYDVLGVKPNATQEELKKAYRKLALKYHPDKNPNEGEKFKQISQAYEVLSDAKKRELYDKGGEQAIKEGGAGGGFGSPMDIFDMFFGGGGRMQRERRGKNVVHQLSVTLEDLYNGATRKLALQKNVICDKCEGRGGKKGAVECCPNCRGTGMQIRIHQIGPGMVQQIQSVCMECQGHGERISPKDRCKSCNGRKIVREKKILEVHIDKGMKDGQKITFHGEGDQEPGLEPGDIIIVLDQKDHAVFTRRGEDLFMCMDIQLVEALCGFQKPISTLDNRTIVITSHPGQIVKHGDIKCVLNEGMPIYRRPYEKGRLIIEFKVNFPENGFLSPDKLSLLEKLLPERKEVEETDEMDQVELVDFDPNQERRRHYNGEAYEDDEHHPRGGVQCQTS
Sequence of Mitogen-activated protein kinase kinase kinase kinase 4 (O95819 whole entry): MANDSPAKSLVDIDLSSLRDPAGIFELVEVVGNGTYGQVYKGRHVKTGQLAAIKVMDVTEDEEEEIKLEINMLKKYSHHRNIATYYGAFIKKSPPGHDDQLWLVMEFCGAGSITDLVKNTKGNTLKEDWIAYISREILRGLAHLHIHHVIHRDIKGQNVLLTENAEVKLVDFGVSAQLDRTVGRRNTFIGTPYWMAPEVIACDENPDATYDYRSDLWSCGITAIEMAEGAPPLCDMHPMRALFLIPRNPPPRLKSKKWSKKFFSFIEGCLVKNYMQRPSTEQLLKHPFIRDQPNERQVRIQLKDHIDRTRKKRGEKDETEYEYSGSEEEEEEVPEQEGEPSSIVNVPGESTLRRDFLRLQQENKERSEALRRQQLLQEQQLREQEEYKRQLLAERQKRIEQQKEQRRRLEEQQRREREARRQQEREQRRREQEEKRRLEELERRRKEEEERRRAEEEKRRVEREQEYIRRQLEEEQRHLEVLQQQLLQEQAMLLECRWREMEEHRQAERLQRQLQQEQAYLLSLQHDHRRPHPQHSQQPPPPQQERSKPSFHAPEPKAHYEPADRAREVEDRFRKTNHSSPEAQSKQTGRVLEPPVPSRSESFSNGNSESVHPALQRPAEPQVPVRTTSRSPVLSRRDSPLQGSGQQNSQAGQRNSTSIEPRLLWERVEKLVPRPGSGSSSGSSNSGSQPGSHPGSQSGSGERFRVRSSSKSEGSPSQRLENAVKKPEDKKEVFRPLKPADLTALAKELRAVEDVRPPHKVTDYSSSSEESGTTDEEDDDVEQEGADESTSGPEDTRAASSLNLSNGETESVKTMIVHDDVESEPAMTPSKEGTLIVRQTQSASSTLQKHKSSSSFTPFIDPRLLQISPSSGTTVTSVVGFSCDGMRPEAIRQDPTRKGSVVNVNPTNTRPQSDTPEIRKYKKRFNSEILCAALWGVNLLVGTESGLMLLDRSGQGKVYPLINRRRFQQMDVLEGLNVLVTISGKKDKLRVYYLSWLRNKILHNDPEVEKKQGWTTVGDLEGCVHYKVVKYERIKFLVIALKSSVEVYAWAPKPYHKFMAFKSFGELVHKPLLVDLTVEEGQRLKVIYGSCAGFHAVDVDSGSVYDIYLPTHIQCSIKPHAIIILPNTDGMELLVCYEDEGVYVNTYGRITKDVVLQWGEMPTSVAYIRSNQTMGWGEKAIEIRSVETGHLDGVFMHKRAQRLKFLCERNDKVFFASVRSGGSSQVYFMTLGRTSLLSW
Sequence of Serine/threonine-protein kinase B-raf (P15056 whole entry): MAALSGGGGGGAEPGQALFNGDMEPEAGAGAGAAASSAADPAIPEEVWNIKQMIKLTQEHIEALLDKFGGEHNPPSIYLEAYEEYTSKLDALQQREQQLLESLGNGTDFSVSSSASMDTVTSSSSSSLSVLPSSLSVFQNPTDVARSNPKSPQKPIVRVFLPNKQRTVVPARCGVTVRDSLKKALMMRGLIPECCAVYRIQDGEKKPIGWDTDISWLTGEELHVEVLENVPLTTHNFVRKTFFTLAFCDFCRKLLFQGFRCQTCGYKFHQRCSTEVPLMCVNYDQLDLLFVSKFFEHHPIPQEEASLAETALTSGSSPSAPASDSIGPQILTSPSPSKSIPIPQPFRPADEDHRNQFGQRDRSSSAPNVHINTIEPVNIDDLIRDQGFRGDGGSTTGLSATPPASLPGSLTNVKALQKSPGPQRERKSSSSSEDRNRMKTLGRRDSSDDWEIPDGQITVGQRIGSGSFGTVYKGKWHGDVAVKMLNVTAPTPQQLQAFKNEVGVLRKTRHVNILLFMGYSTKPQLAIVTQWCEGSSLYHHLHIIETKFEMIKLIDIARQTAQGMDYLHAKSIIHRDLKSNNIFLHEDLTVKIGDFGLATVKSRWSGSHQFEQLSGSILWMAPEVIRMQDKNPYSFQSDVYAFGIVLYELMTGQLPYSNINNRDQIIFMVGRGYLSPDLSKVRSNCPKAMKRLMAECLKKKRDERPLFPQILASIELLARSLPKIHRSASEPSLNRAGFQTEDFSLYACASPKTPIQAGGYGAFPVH
Sequence of Macrophage-stimulating protein receptor (Q04912 25-304 limits assumed): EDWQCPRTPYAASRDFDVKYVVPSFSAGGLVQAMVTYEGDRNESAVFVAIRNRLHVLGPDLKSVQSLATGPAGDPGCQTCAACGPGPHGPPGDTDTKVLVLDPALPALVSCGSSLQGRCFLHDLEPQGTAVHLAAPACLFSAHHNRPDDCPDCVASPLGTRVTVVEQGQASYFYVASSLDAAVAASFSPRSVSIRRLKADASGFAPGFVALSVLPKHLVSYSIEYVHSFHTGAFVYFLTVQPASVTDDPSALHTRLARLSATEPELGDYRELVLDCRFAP
Sequence of Macrophage-stimulating protein receptor (Q04912 310-1400 limits assumed): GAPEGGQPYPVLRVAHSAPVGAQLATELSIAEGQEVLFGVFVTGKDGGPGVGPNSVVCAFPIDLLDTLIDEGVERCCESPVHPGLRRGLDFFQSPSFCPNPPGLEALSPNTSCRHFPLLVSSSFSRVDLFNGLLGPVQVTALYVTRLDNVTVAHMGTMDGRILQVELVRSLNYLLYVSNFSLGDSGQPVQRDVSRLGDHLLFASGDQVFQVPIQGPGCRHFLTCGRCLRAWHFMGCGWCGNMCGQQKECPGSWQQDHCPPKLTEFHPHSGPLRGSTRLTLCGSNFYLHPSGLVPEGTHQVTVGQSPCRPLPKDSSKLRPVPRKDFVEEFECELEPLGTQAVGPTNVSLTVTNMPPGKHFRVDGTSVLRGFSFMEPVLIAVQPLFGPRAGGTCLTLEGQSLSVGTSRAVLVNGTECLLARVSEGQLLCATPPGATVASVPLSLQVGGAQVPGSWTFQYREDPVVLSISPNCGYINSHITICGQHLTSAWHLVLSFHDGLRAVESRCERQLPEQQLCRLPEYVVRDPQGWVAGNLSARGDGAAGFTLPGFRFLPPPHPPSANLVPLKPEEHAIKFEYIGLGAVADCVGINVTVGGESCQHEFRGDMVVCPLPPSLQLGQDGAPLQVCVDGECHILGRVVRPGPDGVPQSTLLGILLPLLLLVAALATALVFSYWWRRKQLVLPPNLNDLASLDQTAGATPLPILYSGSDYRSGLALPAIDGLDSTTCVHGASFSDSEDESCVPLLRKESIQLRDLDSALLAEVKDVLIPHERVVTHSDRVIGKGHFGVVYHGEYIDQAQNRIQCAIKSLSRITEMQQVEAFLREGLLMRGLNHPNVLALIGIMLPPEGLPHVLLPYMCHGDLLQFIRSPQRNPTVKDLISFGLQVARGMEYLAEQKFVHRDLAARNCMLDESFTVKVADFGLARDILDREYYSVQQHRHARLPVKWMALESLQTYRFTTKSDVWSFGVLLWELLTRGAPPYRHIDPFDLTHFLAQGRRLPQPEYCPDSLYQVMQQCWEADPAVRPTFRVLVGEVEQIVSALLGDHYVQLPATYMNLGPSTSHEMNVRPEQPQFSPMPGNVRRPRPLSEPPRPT
Sequence of Glycogen synthase kinase-3 alpha (P49840 whole entry): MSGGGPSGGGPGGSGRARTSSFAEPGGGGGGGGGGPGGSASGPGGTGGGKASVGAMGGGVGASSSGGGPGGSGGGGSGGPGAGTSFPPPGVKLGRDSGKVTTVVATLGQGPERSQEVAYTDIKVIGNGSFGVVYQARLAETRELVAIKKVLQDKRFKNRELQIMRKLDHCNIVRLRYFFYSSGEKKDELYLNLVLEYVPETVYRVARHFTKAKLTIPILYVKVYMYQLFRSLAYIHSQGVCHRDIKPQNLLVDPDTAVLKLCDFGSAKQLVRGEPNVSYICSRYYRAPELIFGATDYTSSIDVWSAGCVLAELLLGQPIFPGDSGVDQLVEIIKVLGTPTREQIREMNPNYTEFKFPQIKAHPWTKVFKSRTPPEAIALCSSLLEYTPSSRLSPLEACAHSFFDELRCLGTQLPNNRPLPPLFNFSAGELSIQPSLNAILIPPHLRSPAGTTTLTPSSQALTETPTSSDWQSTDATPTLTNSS

Compound	Kd [1]	Kd [2]	Kd [3]	Kd [4]	Kd [5]	Kd [6]	Kd [7]	Kd [8]	Kd [9]	Kd [10]	Kd [11]	Kd [12]
C[C@@H](Oc1cc(C(=O)Nc2ccc(C(=O)N3CCN(C)CC3)cc2)nnc1N)c1c(Cl)ccc(F)c1Cl	> 30 µM (inactive)	> 30 µM (inactive)	> 30 µM (inactive)	> 30 µM (inactive)	> 30 µM (inactive)	> 30 µM (inactive)	> 30 µM (inactive)	> 30 µM (inactive)	> 30 µM (inactive)	> 30 µM (inactive)	> 30 µM (inactive)	> 30 µM (inactive)
C[C@H]1CNCCCN1S(=O)(=O)c1cccc2cncc(F)c12	> 30 µM (inactive)	> 30 µM (inactive)	> 30 µM (inactive)	> 30 µM (inactive)	> 30 µM (inactive)	> 30 µM (inactive)	> 30 µM (inactive)	> 30 µM (inactive)	> 30 µM (inactive)	> 30 µM (inactive)	> 30 µM (inactive)	> 30 µM (inactive)
C=CC(=O)N1CCC[C@H](n2c(=O)n(-c3ccc(Oc4ccccc4)cc3)c3c(N)ncnc32)C1	> 30 µM (inactive)	> 30 µM (inactive)	> 30 µM (inactive)	> 30 µM (inactive)	> 30 µM (inactive)	> 30 µM (inactive)	> 30 µM (inactive)	> 30 µM (inactive)	> 30 µM (inactive)	> 30 µM (inactive)	> 30 µM (inactive)	> 30 µM (inactive)
C=CC(=O)Nc1cc2c(Nc3ccc(F)c(Cl)c3)ncnc2cc1C#CC(C)(C)N1CCN(C)CC1 [AV-412 FREE BASE]	> 30 µM (inactive)	> 30 µM (inactive)	> 30 µM (inactive)	> 30 µM (inactive)	> 30 µM (inactive)	> 30 µM (inactive)	> 30 µM (inactive)	> 30 µM (inactive)	> 30 µM (inactive)	> 30 µM (inactive)	> 30 µM (inactive)	> 30 µM (inactive)
COc1cc([C@@H]2c3cc4c(cc3[C@H](O)[C@H]3COC(=O)[C@@H]23)OCO4)cc(OC)c1OC [AXL-1717]	> 30 µM (inactive)	> 30 µM (inactive)	> 30 µM (inactive)	> 30 µM (inactive)	> 30 µM (inactive)	> 30 µM (inactive)	> 30 µM (inactive)	> 30 µM (inactive)	> 30 µM (inactive)	> 30 µM (inactive)	> 30 µM (inactive)	> 30 µM (inactive)
Cn1cnc2c(F)c(Nc3ccc(Br)cc3F)c(C(=O)NOCCO)cc21 [BINIMETINIB]	> 30 µM (inactive)	> 30 µM (inactive)	> 30 µM (inactive)	> 30 µM (inactive)	> 30 µM (inactive)	> 30 µM (inactive)	> 30 µM (inactive)	> 30 µM (inactive)	> 30 µM (inactive)	> 30 µM (inactive)	> 30 µM (inactive)	> 30 µM (inactive)
Cc1cc(Nc2ncc(Cl)c(Nc3ccccc3S(=O)(=O)C(C)C)n2)c(OC(C)C)cc1C1CCNCC1 [CERITINIB]	> 30 µM (inactive)	> 30 µM (inactive)	> 30 µM (inactive)	> 30 µM (inactive)	> 30 µM (inactive)	> 30 µM (inactive)	> 30 µM (inactive)	> 30 µM (inactive)	> 30 µM (inactive)	> 30 µM (inactive)	> 30 µM (inactive)	> 30 µM (inactive)
COc1c(OCCCN2CCOCC2)ccc2c1N=C(NC(=O)c1cnc(N)nc1)N1CCN=C21 [COPANLISIB]	> 30 µM (inactive)	> 30 µM (inactive)	> 30 µM (inactive)	> 30 µM (inactive)	> 30 µM (inactive)	> 30 µM (inactive)	> 30 µM (inactive)	> 30 µM (inactive)	> 30 µM (inactive)	> 30 µM (inactive)	> 30 µM (inactive)	> 30 µM (inactive)
CCCCCCCCCCCCCCCCCCOP(=O)([O-])OC1CC[N+](C)(C)CC1 [PERIFOSINE]	–	> 30 µM (inactive)	> 30 µM (inactive)	> 30 µM (inactive)	> 30 µM (inactive)	> 30 µM (inactive)	> 30 µM (inactive)	> 30 µM (inactive)	> 30 µM (inactive)	> 30 µM (inactive)	> 30 µM (inactive)	> 30 µM (inactive)

Continued, values first:

Kd [1]	Kd [2]	Kd [3]	Kd [4]	Kd [5]	Kd [6]	Kd [7]	Kd [8]	Kd [9]	Kd [10]	Kd [11]	Kd [12]	Compound
> 30 µM (inactive)	> 30 µM (inactive)	> 30 µM (inactive)	> 30 µM (inactive)	> 30 µM (inactive)	> 30 µM (inactive)	> 30 µM (inactive)	> 30 µM (inactive)	> 30 µM (inactive)	> 30 µM (inactive)	> 30 µM (inactive)	> 30 µM (inactive)	Nc1ncnc2c1c(-c1cccc(OCc3ccccc3)c1)cn2[C@H]1C[C@@H](CN2CCC2)C1 [AEW-541]
0.566 µM (active)	2.85 µM (active)	> 30 µM (inactive)	0.041 µM (active)	> 30 µM (inactive)	> 30 µM (inactive)	> 30 µM (inactive)	> 30 µM (inactive)	> 30 µM (inactive)	> 30 µM (inactive)	> 30 µM (inactive)	> 30 µM (inactive)	COc1cc2ncnc(Oc3cccc(NC(=O)Nc4cc(C(C)(C)C(F)(F)F)on4)c3)c2cc1OC [CEP-32496]
–	> 30 µM (inactive)	> 30 µM (inactive)	> 30 µM (inactive)	> 30 µM (inactive)	0.033 µM (active)	> 30 µM (inactive)	0.946 µM (active)	> 30 µM (inactive)	> 30 µM (inactive)	1.1 µM (active)	> 30 µM (inactive)	C[C@@H](N)c1ccc(C(=O)Nc2ccnc3[nH]ccc23)cc1 [Y-39983]
